From ChEMBL document CHEMBL1132685, “Nonpeptide glycoprotein IIB/IIIA inhibitors. 19. A new design paradigm employing linearly minimized, centrally constrained, exosite inhibitors” (Bioorg Med Chem Lett, 1999)

Target: Integrin alpha-IIb/beta-3 (Homo sapiens, UniProt P05106+P08514)
Experiment: Inhibition of glycoprotein IIb/III integrin mediated fibrinogen binding to activated platelets
Assay type: functional

Chain of Integrin alpha-IIb/beta-3 (P05106 27-788 limits assumed): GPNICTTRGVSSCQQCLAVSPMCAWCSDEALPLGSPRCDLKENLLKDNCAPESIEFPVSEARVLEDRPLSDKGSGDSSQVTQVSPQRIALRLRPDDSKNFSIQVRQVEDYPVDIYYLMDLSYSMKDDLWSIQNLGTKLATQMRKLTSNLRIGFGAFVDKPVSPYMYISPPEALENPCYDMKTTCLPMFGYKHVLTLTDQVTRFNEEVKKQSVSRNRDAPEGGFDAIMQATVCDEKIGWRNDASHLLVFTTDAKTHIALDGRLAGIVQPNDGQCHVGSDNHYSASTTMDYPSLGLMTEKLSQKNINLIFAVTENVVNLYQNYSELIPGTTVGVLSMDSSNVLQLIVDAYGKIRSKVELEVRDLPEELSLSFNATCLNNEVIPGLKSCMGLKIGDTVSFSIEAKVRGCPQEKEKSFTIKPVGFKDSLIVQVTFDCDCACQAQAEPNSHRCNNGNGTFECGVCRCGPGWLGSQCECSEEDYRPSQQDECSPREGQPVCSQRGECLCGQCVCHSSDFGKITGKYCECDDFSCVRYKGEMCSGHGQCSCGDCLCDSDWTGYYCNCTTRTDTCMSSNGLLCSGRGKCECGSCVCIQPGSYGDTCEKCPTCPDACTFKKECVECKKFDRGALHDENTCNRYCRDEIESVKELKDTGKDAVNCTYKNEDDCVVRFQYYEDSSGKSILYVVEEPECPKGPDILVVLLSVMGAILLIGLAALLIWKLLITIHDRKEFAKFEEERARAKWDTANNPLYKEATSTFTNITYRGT
Chain of Integrin alpha-IIb/beta-3 (P08514 32-887 limits assumed): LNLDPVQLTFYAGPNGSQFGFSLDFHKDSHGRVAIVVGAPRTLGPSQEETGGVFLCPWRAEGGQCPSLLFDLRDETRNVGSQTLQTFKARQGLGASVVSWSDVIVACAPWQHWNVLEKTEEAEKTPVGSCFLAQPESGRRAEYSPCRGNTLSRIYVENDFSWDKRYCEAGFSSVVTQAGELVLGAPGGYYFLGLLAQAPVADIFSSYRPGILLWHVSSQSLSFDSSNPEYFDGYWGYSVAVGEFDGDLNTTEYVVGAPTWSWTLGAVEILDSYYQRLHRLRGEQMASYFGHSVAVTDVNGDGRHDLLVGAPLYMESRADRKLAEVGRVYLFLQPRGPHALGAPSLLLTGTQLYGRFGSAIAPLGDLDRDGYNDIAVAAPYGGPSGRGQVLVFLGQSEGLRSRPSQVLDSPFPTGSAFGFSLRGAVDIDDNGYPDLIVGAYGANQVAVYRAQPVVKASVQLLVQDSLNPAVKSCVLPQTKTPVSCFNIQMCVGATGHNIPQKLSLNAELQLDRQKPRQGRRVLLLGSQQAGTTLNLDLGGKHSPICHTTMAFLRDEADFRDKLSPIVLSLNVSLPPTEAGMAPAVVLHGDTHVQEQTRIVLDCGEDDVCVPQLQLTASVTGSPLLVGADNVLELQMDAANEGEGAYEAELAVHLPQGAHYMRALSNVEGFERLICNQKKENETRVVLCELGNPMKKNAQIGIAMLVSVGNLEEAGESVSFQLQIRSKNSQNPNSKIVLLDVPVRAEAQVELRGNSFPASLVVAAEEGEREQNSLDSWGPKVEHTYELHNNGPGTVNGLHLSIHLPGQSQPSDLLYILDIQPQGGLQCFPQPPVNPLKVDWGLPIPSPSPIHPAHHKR
Chain of Integrin alpha-IIb/beta-3 (P08514 891-1039 limits assumed): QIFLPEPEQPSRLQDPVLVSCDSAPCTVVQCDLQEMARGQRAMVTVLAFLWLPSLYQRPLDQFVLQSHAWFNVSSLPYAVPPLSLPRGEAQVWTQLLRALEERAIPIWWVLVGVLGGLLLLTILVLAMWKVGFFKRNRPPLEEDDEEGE

Row | IC50 | SMILES
1 | 2800 nM | NCCCCCC(=O)NCC(=O)NC[C@@H](NS(=O)(=O)c1ccccc1)C(=O)O
2 | 29000 nM | NCCCCC(=O)NCC(=O)NC[C@@H](NS(=O)(=O)c1ccccc1)C(=O)O
3 | 380 nM | NCCCCCCC(=O)NCC(=O)NC[C@@H](NS(=O)(=O)c1ccccc1)C(=O)O
4 | 230000 nM | O=C(O)CCNC(=O)c1ccc(N2CCNCC2)cc1
5 | 4900 nM | NCCc1ccc(C(=O)NC[C@H](NS(=O)(=O)c2ccccc2)C(=O)O)cc1
6 | > 30000 nM | NCCCC(=O)NCC(=O)NC[C@@H](NS(=O)(=O)c1ccccc1)C(=O)O
7 | 130 nM | O=C(NC[C@H](NS(=O)(=O)c1ccccc1)C(=O)O)c1ccc(CCC2CCCCN2)cc1 (some centres undefined)
8 | 34 nM | O=C(NC[C@H](NS(=O)(=O)c1ccccc1)C(=O)O)c1ccc(CN2CCNCC2)cc1
9 | 13 nM | NCCCCCOc1ccc(C(=O)NC[C@H](NS(=O)(=O)c2ccccc2)C(=O)O)cc1
10 | 9200 nM | NCCOc1cccc(C(=O)NC[C@H](NS(=O)(=O)c2ccccc2)C(=O)O)c1
11 | 23 nM | NCCCCOc1ccc(C(=O)NC[C@H](NS(=O)(=O)c2ccccc2)C(=O)O)cc1
12 | 55 nM | NCCCOc1ccc(C(=O)NC[C@H](NS(=O)(=O)c2ccccc2)C(=O)O)cc1
13 | 110 nM | NCCOc1ccc(C(=O)NC[C@H](NS(=O)(=O)c2ccccc2)C(=O)O)cc1
14 | 270 nM | NCCCc1ccc(C(=O)NC[C@H](NS(=O)(=O)c2ccccc2)C(=O)O)cc1
